Data on 5 compounds can be found in patent US20140100222A1, “Beta2-ADRENOCEPTOR AGONIST FOR THE TREATMENT OF COUGH” (BOEHRINGER INGELHEIM INTERNATIONAL GMBH, priority 2012, published 2014).

Marks after values point to notes of the source that are not given here.

The test system of data set [1] is citric acid induced cough in OVA sensitised guinea pigs. Description: Anti-tussive activity: citric acid induced cough in OVA sensitised guinea pigs (whole body plethysmograph). It counts as in vivo, guinea pig. The settings on record: for Number of coughs: 2 h before 15 min citric acid challenge, mean; for Anti-tussive effect (%): summary. As for the experimental part:
Animals—Male albino Dunkin-Hartley guinea pigs (350-550 g; Charles River WIGA GmbH, Sulzfeld, Germany) were used. The animals were housed in groups of 6 in solid floor cages and allowed free access to water and standard food. The guinea pigs were kept in rooms maintained at a constant temperature (22° C.±2° C.) and humidity (60%±15%), with a 12 h light cycle. The experiments were approved by the ethical committee Regierungspräsidium Tübingen, Germany.
OVA asthma model—On days 1 and 2, the guinea pigs were immunised by subcutaneous injection of 0.5 ml per animal of a solution of ovalbumin (OVA) (40 μg/ml) and aluminium hydroxide [Al (OH)3]. On day 14, these sensitised guinea pigs were challenged with OVA by exposure to an OVA aerosol (1.25 mg/ml) for 5 minutes, using a Dräger Inhalette® (Dräger Medical AG & Co. KgaA, Lübeck, Germany). 30 minutes prior to the challenge, pyrilamine maleate (2 mg/kg i.p.) was administered to protect the animals against bronchospasm. On day 15, the citric acid challenge was given to induce cough. 2 hours before the challenge, the test compound or vehicle (saline) was delivered by intratracheal (i.t.) administration (0.5 ml/kg) under anaesthesia with isoflurane (Forene®, Abbott GmbH and CO. KG, Wiesbaden, Germany).
Cough recording—Two hours after i.t. application, the citric acid challenge was performed. A whole body plethysmograph manufactured for guinea pigs (Buxco Research Systems, Wilmington, N.C., USA) was used for the experiments. Conscious animals were individually placed, unrestrained, into a whole body plethysmograph chamber. A solution of citric acid (0.4 M) was nebulised using the Aerosol Delivery System (Buxco) and administered to the animals at a rate of nebulisation of 0.18 ml/min for 15 min. During the challenge, airflow in the chamber was recorded by the Buxco system and analysed for the transient increase in airflow produced by cough, in which rapid inspiration is followed by rapid expiration. The system was able to distinguish coughs from other expiratory responses, and the number of coughs was counted.
Data analysis—Data from the treatment groups were compared with the vehicle group. Data are expressed as mean ±SEM of coughs produced by guinea pigs within each group during a 15 minutes citric acid aerosol exposure. Mean values were statistically analyzed by one-way analysis of variance (ANOVA) followed by the Dunnett's Multiple comparisons Test to evaluate significant differences between groups with p<0.05 being considered significant.

The subject of data set [2] is heart rate. Put plainly: Side-effects: increase in heart rate after drug instillation. The protocol:
In the following the heart rate is expressed as a percentage of the pre-value (heart beats per minute) preceding the drug administration. The increase in heart rate expressed in percent corresponds to the difference of heart rate between the vehicle group and the treated group recorded 20 minutes after drug instillation.

In data set [3] the test system is acetylcholine induced bronchoconstriction in guinea pigs. Description: Bronchoprotection: acetylcholine induced bronchospasm in anaesthetised guinea pigs (Konzett-Rössler). It counts as in vivo, guinea pig. The following applies: for Bronchoconstriction (ml overflow): 2 h before acetylcholine 14 μg/kg i.v., mean; for bronchoprotective FED: first dose without side-effect displaying 80 to 100% efficacy. The protocol: Animal-Male and female Dunkin-Harley guinea pigs were obtained from the Experimental Animal Breeding Centre of Harlan Winkelmann (Germany). After fasting overnight, but with free access to drinking water, animals with body weight of 400-500 g are used. Anesthesia and preparation-The anesthesia was induced by intraperitoneal injection of 50 mg/kg pentobarbital. Anesthesia was prolonged by intravenous infusion of pentobarbital (15 mg/kg/h) via the jugular vein. A tracheal cannula was introduced after tracheotomy for artificial ventilation. The internal jugular vein was cannulated for acetylcholine injection. Instrumentation-Bronchospasm was recorded with a modified version of the method of Konzett-Röβler described by […] et al, 1997. […] Lung resistance was measured as ml of overflow and was recorded, amplified and saved under Notocord files (Notocord-hem, Notocord, France). Blood pressure and heart rate were monitored from a carotid artery in order to check the anesthesia and the variability of the preparation. Experimental protocol-2 hours before acetylcholine challenge, guinea pigs were given the test compound or its vehicle intra-tracheally under a slight isoflurane anesthesia. 30 minutes before acetylcholine challenge, lung resistance and blood pressure were measured under anesthesia. […] Data analysis-Data from the treatment groups were compared with the vehicle group. Data are expressed as mean ±SD of ml of overflow. […] Mean values were statistically analyzed by one-way analysis of variance (ANOVA) followed by the Dunnett's Multiple comparisons Test to evaluate significant differences between groups with p<0.05 being considered significant.

Data set [4] has as its system cough reflex. The settings on record: inhaled therapy in asthma, COPD or IPF; therapeutic doses; cited from earlier work.
Setting [5] is: Dunkin-Hartley, guinea pig, in vivo, 20 min.
Setting [6] is: 1 μg/kg i.t., inhibition of acetylcholine bronchoconstriction.

For `COc1ccc2c3c1O[C@H]1[C@@H](O)C=C[C@H]4[C@@H](C2)N(C)CC[C@@]341` [Codeine], the “Inhibition of cough (%) vs vehicle” value is listed as 17% in data set [1] (1 mg/kg i.t.), 42 * % in data set [1] (3 mg/kg i.t.), 58 * % in data set [1] (10 mg/kg i.t.) and 71 * % in data set [1] (30 mg/kg i.t.). The Number of coughs came out at 20 in data set [1] (1 mg/kg i.t.), 14 in data set [1] (3 mg/kg i.t.), 10 in data set [1] (10 mg/kg i.t.) and 7 in data set [1] (30 mg/kg i.t.).

`COc1ccc(CC(C)NCC(O)c2ccc(O)c(NC=O)c2)cc1` (stereo not drawn) [Formoterol]: the “increase in heart rate” value in data set [2] (10 μg/kg, 20 min after administration) is 21%. In addition, the “Dose inducing side-effect (increase in heart rate)” value in data set [2] (first dose increasing heart rate at least 10% vs vehicle, 20 min after administration) stood at 10 µg/kg. Besides, the “Inhibition of cough (%) vs vehicle” value in data set [1] (1 μg/kg i.t.) is listed as 0%; in data set [1] (3 μg/kg i.t.) it was 71 * %; in data set [1] (10 μg/kg i.t.), 58 * %. The values for the Number of coughs in data set [1] (1 μg/kg i.t.), in data set [1] (3 μg/kg i.t.) and in data set [1] (10 μg/kg i.t.) were 26, 7 and 10, respectively. Besides, the “Anti-tussive effect (%)” value is on record as 71% in data set [1] (3 μg/kg) and 58% in data set [1] (10 μg/kg).

Turning to `CCc1cc2c(cc1CC)CC(NC[C@H](O)c1ccc(O)c3[nH]c(=O)ccc13)C2` [Indacaterol], in data set [2] (setting [5]), the “Dose inducing side-effect (increase in heart rate)” value was determined as 100 µg/kg. Besides, the “ratio dose inducing side-effect/bronchoprotective FED” value in data set [2] (guinea pig, in vivo, 20 min) came to 10. Also, in data set [2] (guinea pig, in vivo, 20 min), the “safety margin, times less than for Olodaterol” value came out at 10. Moreover, the “Bronchoconstriction (ml overflow)” value amounted to 34 mL in data set [3] (1 μg/kg i.t.), 18 mL in data set [3] (3 μg/kg i.t.), 6 mL in data set [3] (10 μg/kg i.t.) and 5 mL in data set [3] (30 μg/kg i.t.). Besides, the “Bronchoprotection (%)” value was 8% in data set [3] (setting [6]); 51 * % in data set [3] (3 μg/kg i.t., inhibition of acetylcholine bronchoconstriction); 84 * % in data set [3] (10 μg/kg i.t., inhibition of acetylcholine bronchoconstriction); 86 * % in data set [3] (30 μg/kg i.t., inhibition of acetylcholine bronchoconstriction); 8% in data set [3] (summary, 1 μg/kg); 51% in data set [3] (summary, 3 μg/kg). The “Bronchoprotection (%)” value in data set [3] (summary, 10 μg/kg) is 84%; in data set [3] (summary, 30 μg/kg), 86%. This compound had an ED50 in data set [3] (Cavia porcellus, inhaled or nasal, i.t.) of 3 µg/kg. Also, the “bronchoprotective FED” value in data set [3] was found to be 10 µg/kg. Moreover, the “Inhibition of cough (%) vs vehicle” value in data set [1] (3 μg/kg i.t.), in data set [1] (10 μg/kg i.t.) and in data set [1] (30 μg/kg i.t.) was 0% throughout. Besides, the figures for the Number of coughs in data set [1] (3 μg/kg i.t.), in data set [1] (10 μg/kg i.t.) and in data set [1] (30 μg/kg i.t.) were 26, 32 and 38, respectively. The “Anti-tussive effect (%)” value in data set [1] (3 μg/kg), in data set [1] (10 μg/kg) and in data set [1] (30 μg/kg) was 0% each time.

For the compound `COc1ccc(CC(C)(C)NC[C@H](O)c2cc(O)cc3c2OCC(=O)N3)cc1` [Olodaterol], the “Dose inducing side-effect (increase in heart rate)” value in data set [2] (setting [5]) came out at 30 µg/kg. Further, the “ratio dose inducing side-effect/antitussive FED” value in data set [2] (setting [5]) was determined as 300. The “ratio dose inducing side-effect/bronchoprotective FED” value in data set [2] (setting [5]) came to 100. In addition, the addiction or arrhythmia entry in data set [2] (in vivo) is “no addiction or arrhythmia”. In addition, the “Bronchoconstriction (ml overflow)” value came to 25 mL in data set [3] (0.01 μg/kg i.t.); 14 mL in data set [3] (0.03 μg/kg i.t.); 8 mL in data set [3] (0.1 μg/kg i.t.); 4 mL in data set [3] (0.3 μg/kg i.t.); 2 mL in data set [3] (1 μg/kg i.t.). Also, the “Bronchoprotection (%)” value in data set [3] (0.01 μg/kg i.t., inhibition of acetylcholine bronchoconstriction) was 32%; in data set [3] (0.03 μg/kg i.t., inhibition of acetylcholine bronchoconstriction), 62 * %; in data set [3] (0.1 μg/kg i.t., inhibition of acetylcholine bronchoconstriction) it was 78 * %; in data set [3] (0.3 μg/kg i.t., inhibition of acetylcholine bronchoconstriction), 89 * %; in data set [3] (setting [6]), 95 * %; in data set [3] (summary, 0.01 μg/kg), 32%. Further, the “Bronchoprotection (%)” value was determined as 62% in data set [3] (summary, 0.03 μg/kg); 78% in data set [3] (summary, 0.1 μg/kg); 89% in data set [3] (summary, 0.3 μg/kg); 95% in data set [3] (summary, 1 μg/kg). For the same compound, in data set [3], the “bronchoprotective FED” value was 0.3 µg/kg. The “minimum effective dose for bronchoprotection” value in data set [3] (i.t.) worked out at 0.01 µg/kg. The “Inhibition of cough (%) vs vehicle” value is reported as 33% in data set [1] (0.01 μg/kg i.t.); 58 * % in data set [1] (0.03 μg/kg i.t.); 79 * % in data set [1] (0.1 μg/kg i.t.); 79 * % in data set [1] (0.3 μg/kg i.t.); 75 * % in data set [1] (1 μg/kg i.t.); 79 * % in data set [1] (3 μg/kg i.t.). The Number of coughs in data set [1] (0.01 μg/kg i.t.) is on record as 16; in data set [1] (0.03 μg/kg i.t.) it was 10; in data set [1] (0.1 μg/kg i.t.), 5; in data set [1] (0.3 μg/kg i.t.), 5; in data set [1] (1 μg/kg i.t.) it was 6; in data set [1] (3 μg/kg i.t.) it was 5. Besides, the “antitussive Fully Effective Dose (FED)” value in data set [1] (first dose without side-effect displaying 70 to 80% efficacy) came to 0.1 µg/kg. Moreover, the “Anti-tussive effect (%)” value was determined as 33% in data set [1] (0.01 μg/kg); 58% in data set [1] (0.03 μg/kg); 79% in data set [1] (0.1 μg/kg); 79% in data set [1] (0.3 μg/kg); 75% in data set [1] (1 μg/kg).

`OCc1cc(C(O)CNCCCCCCOCCCCc2ccccc2)ccc1O` (stereo not drawn) [Salmeterol]: the “effect on cough reflex” value in data set [4] is “display anti-tussive effect”.

The ED50 is the dose at which the effect has come halfway, by size or by number of responders. Higher therefore signals weaker potency.
